The nature of one data set: in vivo. The conditions noted are these: Göttingen, minipig. A digest of the protocol: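 Catheterised mini-pigs received compound i.v. at 10 nmol/kg in pH 4.0 phosphate/NaCl/tween vehicle, or alternatively i.v. or s.c. at 1–30 nmol/kg in pH 8.0 K2HPO4/tween. Stabilised plasma was sampled up to 13 days and assayed by LC-MS (LLOQ 2 nM). Half-life came from non-compartmental analysis of individual animal profiles.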

The next data set deals with T1, Y4 receptor (Homo sapiens, UniProt P50391).
T1 construct: host or cells: ACTOne HEK-293 cells
T1 sequence (P50391 whole entry): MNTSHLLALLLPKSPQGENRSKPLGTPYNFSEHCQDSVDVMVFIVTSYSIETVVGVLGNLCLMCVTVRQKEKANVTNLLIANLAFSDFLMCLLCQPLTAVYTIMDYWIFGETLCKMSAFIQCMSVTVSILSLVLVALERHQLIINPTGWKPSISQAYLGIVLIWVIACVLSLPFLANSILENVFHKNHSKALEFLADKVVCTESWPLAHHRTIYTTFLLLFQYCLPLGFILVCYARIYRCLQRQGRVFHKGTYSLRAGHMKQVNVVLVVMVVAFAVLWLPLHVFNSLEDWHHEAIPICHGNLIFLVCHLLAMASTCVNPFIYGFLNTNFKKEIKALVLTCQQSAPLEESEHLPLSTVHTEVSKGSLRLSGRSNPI
Description: Y4 receptor ACTOne based FLIPR assay (cAMP biosensor). The data set is classed as cell-based. The conditions noted are these: Table 2, PP analogues; ACTOne HEK-293 cells; read-out: Y4 cAMP EC50. An excerpt:
(§1) ACTOne™ is an easily scaleable cAMP biosensor HTS platform for measurement of Gs and Gi coupled 7™ receptor signalling from BD Biosciences (San Jose, Calif.). The cells express a biosensor developed around a modified rat olfactory cyclic nucleotide gated (CNG) calcium channel—a fairly non-discriminatory ion channel that responds to cAMP and cGMP. The CNG has been engineered to be cAMP selective and thus function as a cAMP responsive biosensor that signals through calcium or membrane potential responsive dyes. Y2 or Y4 receptor expressing ACTOne HEK-293 cells are obtained from BD Biosciences. The cells are loaded with a calcium responsive dye that only distributes in the cytoplasm. Probenecid, an inhibitor of the organic anion transporter is added to prevent the dye from leaving the cell. A phosphodiesterase inhibitor is added to prevent formatted cAMP from being degraded. Isoproterenol (an β1/β2 agonist) is added to activate the adenylate cyclase. When an Y2 or Y4 receptor agonist is added, the adenylate cyclase is inactivated. The decreased calcium concentration in the cytoplasm is then detected as an increase in fluorescence. Together with the test substance, Isoproterenol at a concentration matching EC80, is added to all wells. • The cells are plated out in Greiner 384-well plates. […] The plates are covered with tinfoil to avoid light (the dye can be excited by the daylight, which results in higher baseline and variation). • The FLIPR (FLIPRtetra from Molecular Devices, CA, USA) adds 1 μl sample and 1 μl isoproterenol (0.05 μM final concentration) at the same time. • The fluorescence signal from the wells is measured 330 seconds after sample addition on the FLIPR.

The target of the next data set is T2, Y2 receptor (Homo sapiens, UniProt P49146).
T2 construct: host or cells: ACTOne HEK-293 cells
T2 sequence (P49146 1-381): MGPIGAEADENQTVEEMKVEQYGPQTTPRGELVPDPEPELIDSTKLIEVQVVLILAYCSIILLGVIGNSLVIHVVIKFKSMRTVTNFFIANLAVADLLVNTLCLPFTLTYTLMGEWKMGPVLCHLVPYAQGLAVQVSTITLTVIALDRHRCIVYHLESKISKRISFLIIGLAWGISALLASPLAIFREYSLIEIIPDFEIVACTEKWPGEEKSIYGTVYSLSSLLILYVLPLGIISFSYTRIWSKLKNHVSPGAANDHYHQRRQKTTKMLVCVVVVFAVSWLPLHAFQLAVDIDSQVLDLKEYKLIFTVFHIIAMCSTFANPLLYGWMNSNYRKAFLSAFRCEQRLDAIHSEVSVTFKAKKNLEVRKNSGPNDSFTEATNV
Description: Y2 receptor ACTOne based FLIPR assay (cAMP biosensor). It counts as cell-based. The note with it: Table 2, PP analogues; ACTOne HEK-293 cells; read-out: Y2 cAMP EC50.
Text: as §1

*1 amine or outer side, *2 acyl side, *3 side chain or, on linkers, in order; H or OH if unused. Where a SMILES comes first, the peptide text is derived from it. Side-chain parts run from the residue outwards. The star is where a group is joined. C20 diacid = O=C(O)CCCCCCCCCCCCCCCCCCC(=O)*; C18 diacid = O=C(O)CCCCCCCCCCCCCCCCC(=O)*; γGlu = O=C(O)[C@H](CCC(=O)[*:2])N[*:1]; Trx = NC[C@H]1CC[C@H](C(=O)O)CC1; AEEA = NCCOCCOCC(=O)O

On to `CC[C@H](C)[C@H](NC(=O)[C@H](Cc1ccc(O)cc1)NC(=O)[C@H](CCCNC(=N)N)NC(=O)[C@H](CCCNC(=N)N)NC(=O)[C@H](CC(C)C)NC(=O)[C@H](CC(=O)O)NC(=O)[C@H](C)NC(=O)[C@H](C)NC(=O)[C@H](Cc1ccc(O)cc1)NC(=O)[C@H](CCC(N)=O)NC(=O)[C@H](C)NC(=O)[C@H](CC(C)C)NC(=O)[C@H](CCC(N)=O)NC(=O)[C@H](CCC(=O)O)NC(=O)[C@@H]1CCCN1C(=O)[C@@H](NC(=O)[C@H](C)NC(=O)[C@H](CC(N)=O)NC(=O)[C@H](CC(=O)O)NC(=O)CNC(=O)[C@@H]1CCCN1C(=O)[C@H](Cc1ccc(O)cc1)NC(=O)[C@@H](NC(=O)[C@@H]1CCCN1C(=O)[C@H](CCC(=O)O)NC(=O)[C@H](CC(C)C)NC(=O)[C@@H]1CCCN1)C(C)C)[C@@H](C)O)C(=O)N[C@@H](CC(N)=O)C(=O)N[C@@H](CC(C)C)C(=O)N[C@@H](CC(C)C)C(=O)N[C@H](C(=O)N[C@@H](CCCNC(=N)N)C(=O)N1CCC[C@H]1C(=O)N[C@@H](CCCCNC(=O)COCCOCCNC(=O)COCCOCCNC(=O)CC[C@H](NC(=O)[C@H]1CC[C@H](CNC(=O)CCCCCCCCCCCCCCCCCCC(=O)O)CC1)C(=O)O)C(=O)N[C@@H](Cc1ccc(O)cc1)C(N)=O)[C@@H](C)O` [SEQ ID NO: 48, N-epsilon35-[2-(2-{2-[2-(2-{2-[(S)-4-Carboxy-4-({trans-4-[(19-carboxynonadecanoylamino)methyl]cyclohexanecarbonyl}amino)butyrylamino]-ethoxy}ethoxy)acetylamino]ethoxy}ethoxy)acetyl][Leu17,Leu30,Lys35]hPP2-36] (H-PLEPVYPGDNATPEQLAQYAADLRRYINLLTRPK([AEEA-AEEA-γGlu-Trx-C20 diacid])Y-NH2), for which, in the data set “in vivo” (iv, 10 nmol/kg), the half-life (in general, the time needed for the level to fall by half in the phase considered) was 93 h. For the same compound, the EC50 on Y4 receptor and on Y2 receptor was > 1000 nM in each case.

For `CC[C@H](C)[C@H](NC(=O)[C@H](Cc1ccc(O)cc1)NC(=O)[C@H](CCCNC(=N)N)NC(=O)[C@H](CCCNC(=N)N)NC(=O)[C@H](CC(C)C)NC(=O)[C@H](CC(=O)O)NC(=O)[C@H](C)NC(=O)[C@H](C)NC(=O)[C@H](Cc1ccc(O)cc1)NC(=O)[C@H](CCC(N)=O)NC(=O)[C@H](C)NC(=O)[C@H](CC(C)C)NC(=O)[C@H](CCC(N)=O)NC(=O)[C@H](CCC(=O)O)NC(=O)[C@@H]1CCCN1C(=O)[C@@H](NC(=O)[C@H](C)NC(=O)[C@H](CC(N)=O)NC(=O)[C@H](CC(=O)O)NC(=O)CNC(=O)[C@@H]1CCCN1C(=O)[C@H](Cc1ccc(O)cc1)NC(=O)[C@@H](NC(=O)[C@@H]1CCCN1C(=O)[C@H](CCC(=O)O)NC(=O)[C@H](CC(C)C)NC(=O)[C@@H]1CCCN1)C(C)C)[C@@H](C)O)C(=O)N[C@@H](CCCCNC(=O)COCCOCCNC(=O)COCCOCCNC(=O)CC[C@H](NC(=O)[C@H]1CC[C@H](CNC(=O)CCCCCCCCCCCCCCCCCCC(=O)O)CC1)C(=O)O)C(=O)N[C@@H](CC(C)C)C(=O)N[C@@H](CC(C)C)C(=O)N[C@H](C(=O)N[C@@H](CCCNC(=N)N)C(=O)N1CCC[C@H]1C(=O)N[C@@H](CCCNC(=N)N)C(=O)N[C@@H](Cc1ccc(O)cc1)C(N)=O)[C@@H](C)O` [SEQ ID NO: 44, N-epsilon29-[2-(2-{2-[2-(2-{2-[(S)-4-Carboxy-4-({trans-4-[(19-carboxynonadecanoylamino)methyl]cyclohexanecarbonyl}amino)butyrylamino]-ethoxy}ethoxy)acetylamino]ethoxy}ethoxy)acetyl][Leu17,Lys29,Leu30]hPP2-36] (H-PLEPVYPGDNATPEQLAQYAADLRRYIK([AEEA-AEEA-γGlu-Trx-C20 diacid])LLTRPRY-NH2), the half-life was 74 h in the data set “in vivo” (iv, 4 nmol/kg) and 93 h in “in vivo” (male, sc, 4 nmol/kg). Further, the EC50 (as a rule, the concentration at which the effect is half-maximal) on Y4 receptor was > 890 nM; at Y2 receptor, > 1000 nM.

Take `CC[C@H](C)[C@H](NC(=O)[C@H](Cc1ccc(O)cc1)NC(=O)[C@H](CCCNC(=N)N)NC(=O)[C@H](CCCNC(=N)N)NC(=O)[C@H](CC(C)C)NC(=O)[C@H](CC(=O)O)NC(=O)[C@H](C)NC(=O)[C@H](C)NC(=O)[C@H](Cc1ccc(O)cc1)NC(=O)[C@H](CCC(N)=O)NC(=O)[C@H](C)NC(=O)[C@H](CC(C)C)NC(=O)[C@H](CCC(N)=O)NC(=O)[C@H](CCC(=O)O)NC(=O)[C@@H]1CCCN1C(=O)[C@@H](NC(=O)[C@H](C)NC(=O)[C@H](CC(N)=O)NC(=O)[C@H](CC(=O)O)NC(=O)CNC(=O)[C@@H]1CCCN1C(=O)[C@H](Cc1ccc(O)cc1)NC(=O)[C@@H](NC(=O)[C@@H]1CCCN1C(=O)[C@H](CCC(=O)O)NC(=O)[C@H](CC(C)C)NC(=O)[C@@H]1CCCN1C(=O)COCCOCCNC(=O)COCCOCCNC(=O)CC[C@H](NC(=O)CCCCCCCCCCCCCCCCC(=O)O)C(=O)O)C(C)C)[C@@H](C)O)C(=O)N[C@@H](CC(N)=O)C(=O)N[C@@H](CC(C)C)C(=O)N[C@@H](CC(C)C)C(=O)N[C@H](C(=O)N[C@@H](CCCNC(=N)N)C(=O)N1CCC[C@H]1C(=O)N[C@@H](CCCNC(=N)N)C(=O)N[C@@H](Cc1ccc(O)cc1)C(N)=O)[C@@H](C)O` [SEQ ID NO: 55, N-alfa-[2-(2-{2-[2-(2-{2-[(S)-4-Carboxy-4-(17-carboxyheptadecanoylamino)butyrylamino]ethoxy}ethoxy)acetylamino]-ethoxy}ethoxy)acetyl][Leu17,Leu30]hPP2-36] ({C18 diacid-γGlu-AEEA-AEEA}-PLEPVYPGDNATPEQLAQYAADLRRYINLLTRPRY-NH2; C-terminus assumed): the half-life in the data set “in vivo” (iv, 7 nmol/kg) was 29 h. For the same compound, the EC50 at Y4 receptor was 1 nM; on Y2 receptor, > 1000 nM.

For the compound `CC[C@H](C)[C@H](NC(=O)[C@H](Cc1ccc(O)cc1)NC(=O)[C@H](CCCNC(=N)N)NC(=O)[C@H](CCCNC(=N)N)NC(=O)[C@H](CC(C)C)NC(=O)[C@H](CC(=O)O)NC(=O)[C@H](C)NC(=O)[C@H](C)NC(=O)[C@H](Cc1ccc(O)cc1)NC(=O)[C@H](CCC(N)=O)NC(=O)[C@H](C)NC(=O)[C@H](CC(C)C)NC(=O)[C@H](CCC(N)=O)NC(=O)[C@H](CCC(=O)O)NC(=O)[C@@H]1CCCN1C(=O)[C@@H](NC(=O)[C@H](C)NC(=O)[C@H](CCCCNC(=O)COCCOCCNC(=O)COCCOCCNC(=O)CC[C@H](NC(=O)CCCCCCCCCCCCCCCCC(=O)O)C(=O)O)NC(=O)[C@H](CC(=O)O)NC(=O)CNC(=O)[C@@H]1CCCN1C(=O)[C@H](Cc1ccc(O)cc1)NC(=O)[C@@H](NC(=O)[C@@H]1CCCN1C(=O)[C@H](CCC(=O)O)NC(=O)[C@H](CC(C)C)NC(=O)[C@@H]1CCCN1)C(C)C)[C@@H](C)O)C(=O)N[C@@H](CC(N)=O)C(=O)N[C@@H](CC(C)C)C(=O)N[C@@H](CC(C)C)C(=O)N[C@H](C(=O)N[C@@H](CCCNC(=N)N)C(=O)N1CCC[C@H]1C(=O)N[C@@H](CCCNC(=N)N)C(=O)N[C@@H](Cc1ccc(O)cc1)C(N)=O)[C@@H](C)O` [SEQ ID NO: 30, N-epsilon11-[2-(2-{2-[2-(2-{2-[(S)-4-Carboxy-4-(17-carboxyheptadecanoylamino)butyrylamino]ethoxy}ethoxy)acetylamino]-ethoxy}ethoxy)acetyl][Lys11,Leu17,Leu30]hPP2-36] (H-PLEPVYPGDK([AEEA-AEEA-γGlu-C18 diacid])ATPEQLAQYAADLRRYINLLTRPRY-NH2; N-terminus and C-terminus assumed), the half-life in the data set “in vivo” (iv, […]) is 22 h. Also, the values for the EC50 on Y4 receptor and on Y2 receptor were 1 nM and > 1000 nM, respectively.

These data come from patent US20110275559A1, “Long-Acting Y2 and/or Y4 Receptor Agonists” (Novo Nordisk A/S, priority 2008, published 2011).
